{
  "source": "patent US20110201648A1",
  "about": "“POLY-HETEROARYL DERIVATIVES FOR THE TREATMENT OF CANCER” (INSTITUT CURIE, priority 2008, published 2011)",
  "key": {"[1]": {"system": "FPf1T (plasmodium telomeric quadruplex-DNA)", "test": "FRET-melting assay with FPf1T", "assay_type": "binding, Plasmodium falciparum", "conditions": "0.2 μM FPf1T, 1 μM compound", "procedure": "(§1) Stabilization, and so interaction, of compounds with quadruplex-structure is monitored via FRET-melting assay, in a version that also enables the determination of the quadruplex-over duplex-DNA selectivity as well as the intra-quadruplex selectivity (17).\n(§2) FRET assay is performed with oligonucleotides that mimic the human or plasmodium telomeric sequences, and equipped with FRET partners at each extremities: F21T (FAM-G3[T2AG3]3-Tamra,) FPf1T (FAM-G3[T3AG3]3-Tamra) and FPf8T (FAM-G3[T2CAG3]3-Tamra) with FAM: 6-carboxyfluorescein and Tamra: 6-carboxy-tetramethylrhodamine). Measurements were made with excitation at 492 nm and detection at 516 nm.\n(§3) Fluorescence melting were carried out. The results are given on FIG. 3A-FIG. 3C. The experiments were carried out with 0.2 μM of F21T, FPf1T or FPf8T in a buffer containing 10 mM lithium cacodylate pH 7.2 and 100 mM NaCl or KCl (see example of F21T below, NaCl (left) and KCl (right)); the melting of the quadruplex-DNA was monitored alone and in the presence of 1 μM (5 equiv.) of compound 3."}, "[2]": {"system": "FPf8T (plasmodium telomeric quadruplex-DNA)", "test": "FRET-melting assay with FPf8T", "assay_type": "binding, Plasmodium falciparum", "conditions": "0.2 μM FPf8T, 1 μM compound", "procedure": "as §1, §2, §3"}, "[3]": {"test": "Fluorescence quantum yield", "assay_type": "physicochemical", "conditions": "anthracene in ethanol as reference", "procedure": "Pyridine-based polyheteroaromatic compounds detailed in this study are characterized by a strong fluorescence. Remarkably, the quantum yield is not affected by the nature of the solvent they are used in, from pure organic (e.g. DMSO) to physiological conditions (e.g. buffer: 10 mM sodium cacodylate+100 mM KCl, pH 7.2, see Table). The modification of the fluorescence properties of studied compounds upon interaction with DNA enables to compare their apparent binding affinity for several quadruplexes of biological relevance (27).\nNB: the quantum yields (and standard deviations (s.d.)) of compound 3 were measured in CH2Cl2 (DCM) and water, with anthracene in ethanol as reference."}, "[4]": {"system": "22AG quadruplex-DNA (human telomeric sequence)", "test": "Fluorescence titration with 22AG", "assay_type": "binding", "conditions": "0.25 μM compound, λex=340 nm", "procedure": "The quadruplex-DNA used herein is 22AG: it results from the folding of a 22 nt oligonucleotide that mimics the human telomeric sequence: 22AG is [5′-AG3(T2AG3)3-3′]. Quadruplex-structure from 22AG is prepared by heating the corresponding oligonucleotide at 90° C. for 5 min in a 10 mM sodium cacodylate buffer pH 7.2, 100 mM NaCl (for 22AG Na) or KCl (for 22AG K) and cooling in ice to favor the intramolecular folding by kinetic trapping. Concentrations are determined by UV-Vis measurements (after thermal denaturation, 5 min at 85° C.) at 260 nm before use. (see FIG. 7A and FIG. 7B)."}, "c-myc quadruplex-DNA": {"system": "c-myc quadruplex-DNA", "test": "Fluorescence titration with c-myc", "assay_type": "binding", "conditions": "0.25 μM compound, cacodylate buffer + 100 mM KCl, λex=340 nm", "procedure": "(§4) The intra-quadruplex selectivity is evaluated through fluorescence titrations by comparison of experiments carried out with 22AG (see above) and with two other quadruplex-structures: c-myc and c-kit2. The formation of these two quadruplex-DNAs is currently highly suspected in the promoter region of c-myc (see above) and c-kit (22; 29 and 30)oncogenes. The sequences are the following: c-myc: [5′-[…]-3′] and c-kit2: [(5′-[…]-3′]; Quadruplex-structures are prepared by heating the corresponding oligonucleotide at 90° C. for 5 min in a 10 mM sodium cacodylate buffer pH 7.2, 100 mM KCl and cooling in ice to favor the intramolecular folding by kinetic trapping. Concentrations are determined by UV-Vis measurements (after thermal denaturation, 5 min at 85° C.) at 260 nm before use."}, "c-kit2 quadruplex-DNA": {"system": "c-kit2 quadruplex-DNA", "test": "Fluorescence titration with c-kit2", "assay_type": "binding", "conditions": "0.25 μM compound, cacodylate buffer + 100 mM KCl, λex=340 nm", "procedure": "as §4"}, "22AG quadruplex-DNA": {"system": "22AG quadruplex-DNA", "test": "Circular dichroism with 22AG", "assay_type": "binding, human", "procedure": "Circular dichroism (CD) enables a deep study of the modification of the DNA structure upon the binding of a ligand; it thus reflects the affinity of the ligand to its target, and can also provide insight into its binding mode (Paramasivan et al, Methods, 2007, 43, 324).\nThe quadruplex-DNA used herein is 22AG (see above), annealed both in a 10 mM sodium cacodylate buffer pH 7.2, 100 mM NaCl (for 22AG Na) or KCl (for 22AG K). To a 3 μM solution of 22AG in both buffers is added an excess of compound 3 (30 μM, 10 equiv.).\nThe equilibrium between folded and unfolded forms of 22AG oligonucleotide is highly sensitive to the presence and the nature of the buffer it is used in. In low cationic buffer like 10 mM Tris.HCl, pH 7.2, 22AG is mostly unfolded (random coiled); it is thus possible to influence the folded <-> unfolded equilibrium by adding compound 3. Thus, to a 3 μM solution of random coiled 22AG in Tris.HCl buffer are added increasing amounts of compound 3 (from 0 to 7.5 equiv.); it results in a deep modification of the CD signal of 22AG, with a disappearance of the random coiled-typical 257 nm signal to the benefit of two novel maxima, one positive (near 290 nm) and one negative (near 265 nm), both being typical of the CD signature of ‘anti-parallel’ quadruplex-DNA structure (as 22AG Na, see above)."}, "[5]": {"system": "HT1080GFP-POT1 human fibrosarcoma and U20S human osteosarcoma cells", "test": "Inhibition of cell proliferation, viable cell count with trypan blue", "assay_type": "cell-based", "conditions": "72 hours, read-out: IC50 proliferation of cancer cells", "procedure": "The HT1080 human fibrosarcoma cell line stably transfected with pEGFP-POT1 vector (HT1080GFP-POT1) has been previously described (32) and U20S human osteosarcoma was from American Type Culture Collection (Rockville, USA). Cells were grown in Dublecco's modified Eagles's medium (Invitrogen) supplemented with 10% v/v fetal bovine serum and with 400 μg/ml geneticin for HT1080GFP-POT1. Cells were plated in 6-wells culture plates on day 0 at 4.5×10^4 cells/well in the presence of different concentrations of compound 3 (10, 3, 1, 0.3 and 0.1 μM), each concentration in duplicate, and cultured for further 72 hours. At day 3, cells were washed with 1×PBS and trypsinized. For each treated cell sample, the number of viable cells was determined in the presence of trypan blue. Results are given on FIG. 15A and FIG. 15B. They correspond to the relative cell number in percent as compared to control untreated cells defined as 100%."}},
  "data": [
    {"compound": "c1cc(-c2cnc(-c3cccc(-c4cnco4)n3)o2)nc(-c2cnc(-c3cccc(-c4cnco4)n3)o2)c1", "note": "[compound 3, 2,6-bis{2-[6-(oxazol-5-yl)pyridin-2-yl]oxazol-5-yl}pyridine]", "values": [
      {"measurement": "ΔT1/2 FPf1T", "setting": "[1]; K+ (100 mM KCl)", "result": 2.1, "unit": "°C"},
      {"measurement": "ΔT1/2 FPf1T", "setting": "[1]; Na+ (100 mM NaCl)", "result": 20.4, "unit": "°C"},
      {"measurement": "ΔT1/2 FPf8T", "setting": "[2]; K+ (100 mM KCl)", "result": 1.5, "unit": "°C"},
      {"measurement": "ΔT1/2 FPf8T", "setting": "[2]; Na+ (100 mM NaCl)", "result": 16.3, "unit": "°C"},
      {"measurement": "Quantum yield", "setting": "[3]; DCM (CH2Cl2)", "result": 50.35, "unit": "%"},
      {"measurement": "Quantum yield", "setting": "[3]; Water", "result": 50.37, "unit": "%"},
      {"measurement": "fluorescence of compound upon addition of 22AG K", "setting": "[4]; cacodylate buffer + 100 mM KCl", "result": "progressive quench of the fluorescence"},
      {"measurement": "fluorescence of compound upon addition of 22AG Na", "setting": "[4]; cacodylate buffer + 100 mM NaCl", "result": "progressive quench of the fluorescence"},
      {"measurement": "fluorescence of compound upon addition of c-myc", "setting": "c-myc quadruplex-DNA", "result": "progressive quench of the fluorescence"},
      {"measurement": "fluorescence of compound upon addition of c-kit2", "setting": "c-kit2 quadruplex-DNA", "result": "progressive quench of the fluorescence"},
      {"measurement": "CD signal of 22AG K", "setting": "22AG quadruplex-DNA; 3 μM 22AG, 30 μM compound (10 equiv.), 100 mM KCl, 263 nm", "result": "reorganises completely the structure"},
      {"measurement": "CD signal of 22AG Na", "setting": "22AG quadruplex-DNA; 3 μM 22AG, 30 μM compound (10 equiv.), 100 mM NaCl, 263 nm", "result": "modification of the amplitude of the CD signal"},
      {"measurement": "quadruplex-structure induction (folded/unfolded equilibrium of 22AG)", "setting": "22AG quadruplex-DNA; 3 μM random coiled 22AG in 10 mM Tris.HCl pH 7.2, 0 to 7.5 equiv. compound", "result": "able to shift the equilibrium between the unfolded and the folded form of 22AG toward the folded one"},
      {"measurement": "IC50", "setting": "[5]", "result": "100 to 1000", "unit": "nM"}
    ]}
  ]
}
